The test system of one data set is p53 in A2780 cells. Description: p53 ELISA in A2780 cells (capacity to preserve p53). The class given is cell-based. Particulars: lowest dose giving at least 140% of the p53 value of the control, 16 hours. As for the experimental part:
The capacity of the compounds to preserve p53 in A2780 cells was measured with the p53 enzyme linked immunosorbent assay. The p53 assay is a “sandwich” enzyme immunoassay employing two polyclonal antibodies. A polyclonal antibody, specific for the p53 protein, has been immobilized onto the surface of the plastic wells. Any p53 present in the sample to be assayed will bind to the capture antibody. The biotinylated detector polyclonal antibody also recognizes p53 protein, and will bind to any p53, which has been retained by the capture antibody. The detector antibody, in turn, is bond by horseradish peroxidase-conjugated streptavidin. The horseradish peroxidase catalyses the conversion of the chromogenic substrate o-phenylene diamine, the intensity of which is proportional to the amount of p53 protein bond to the plate. The colored reaction product is quantified using a spectrophotometer. Quantitation is achieved by the construction of a standard curve using known concentrations of purified recombinant HIS tagged p53 protein (see example C.1.).
A2780 cells (ATCC) were cultivated in RPMI 1640 supplemented with 10% fetal calf serum (FCS), 2 mM L-glutamine and gentamycin at 37° C. in a humidified incubator with 5% CO2.
A2780 cells were seeded at 20.000 cells per well in a 96 well plate, cultured for 24 hours and treated with compound for 16 hours at 37° C. in a humidified incubator. After incubation, the cells were washed once with phosphate-buffered saline and 30 μl, per well, low salt RIPA buffer (20 mM tris, pH7.0, 0.5 mM EDTA, 1% Nonidet P40, 0.5% DOC, 0.05% SDS, 1 mM PMSF, 1 μg/ml aprotinin and 0.5 μ/ml leupeptin) was added. Plates were placed on ice for 30 minutes to complete the lysis. p53 protein was detected in de lysates by using the sandwich ELISA, described below.
High binding polystyrene EIA/RIA 96 well plates (Costar 9018) were coated with the capture antibody pAb1801 (Abcam ab28-100) at a concentration of 1 μg/ml in coating buffer (0.1 M NaHCO3 pH8.2), 50 μl per well. The antibody was allowed to adhere overnight at 4° C. Coated plates were washed once with phosphate-buffered saline (PBS)/0.05% Tween 20 and 300 μl of blocking buffer (PBS, 1% bovine serum albumins (BSA)) was added, for an incubation period of 2 hours at room temperature. Dilutions of purified recombinant HIS tagged p53 protein, ranging from 3-200 ng/ml, were made in blocking buffer and used as standards.
Plates were washed twice with PBS/0.05% Tween 20 and blocking buffer or standards were added at 80 μl/well. To the standards, 20 μl of lysis buffer was added. The samples were added to the other wells at 20 μl lysate/well. After an overnight incubation at 4° C., plates were washed twice with PBS/0.05% Tween 20. Aliquots of 100 μl secondary polyclonal antibody p53(FL-393) (Tebubio, sc-6243) at a concentration of 1 μg/ml in blocking buffer were added to each well and allowed to adhere for 2 hours at room temperature. Plates were washed three times with PBS/0.05% Tween 20. Detection antibody anti-rabbit HRP (sc-2004, Tebubio) at 0.04 μg/ml in PBS/1% BSA was added and incubated for 1 hour at room temperature. Plates were washed three times with PBS/0.05% Tween 20 and 100 μl of substrate buffer was added (substrate buffer was prepared shortly before use by adding 1 tablet of 10 mg o-phenylene diamine (OPD) from Sigma and 125 μl 3% H2O2 to 25 ml OPD buffer: 35 mM citric acid, 66 mM Na2HPO4, pH5.6). After 5 to 10 minutes, colour reaction was stopped by adding 50 μl stop buffer (1 M H2SO4) per well. The absorbance at dual wavelengths of 490/655 nm was measured using a Biorad micro plate reader and the results were then analyzed.
For each experiment, controls (containing no drug) and a blank incubation (containing no cells or drugs) were run in parallel. The blank value was subtracted from all control and sample values. For each sample, the value of p53 (in absorbance units) was expressed as the percentage of the value for p53 present in the control. […]

A further data set has as its system p53 in U87MG cells. Description: U87MG p53-elisa as described in EP1809622. The conditions noted are these: lowest dose giving at least 140% of the p53 value of the control. It counts as cell-based.
For a further data set, the system named is Male NMRI mice. The experiment in a line: Ro-4-1284 antagonism in mice (drug induced neurological effects). It counts as in vivo. The conditions noted are these: Ro-4-1284 antagonism in mice. As for the experimental part: The test is a modification of a procedure described by Colpaert et al. (1975).^3 Male NMRI mice (22±3 g) were housed in macrolon observation cages (L×W×H: 11×12×17 cm; n=3 per cage). At the start of the experiments immediately before test compound administration, the initial body temperature of the mice was measured with a precision of 0.1° C. by inserting the thermo-sensitive probe (1.0 mm diameter) of an electric thermometer (Comark) to a constant depth of 3 cm into the esophagus until a stable reading was obtained. The right eye pupil diameter was measured with a graduated microscope and expressed in 1/24 mm units. Fifteen min after test compound administration, the mice were challenged with Ro-4-1284 (10 mg/kg, s.c.). Ro-4-1284 is a reserpine-like vesicular monoamine transport (VMAT-2) inhibitor, which rapidly depletes secretory vesicles.^3,4 Fifteen, 30 and 60 min after challenge, the mice were scored for palpebral opening (0, 1, 2, 3, 4, 5) and locomotor activity (−1, 0, 1, 2, 3). At the 60-min interval, immediately after the scoring of overt behavior, the right eye pupil diameter and the esophageal temperature were measured again. Abnormal phenomena such as intensive sniffing, chewing, rearing, hyperemia, piloerection, salivation, tremors, convulsions and death were noted (the latter phenomena were also noted when occurring before Ro-4-1284 administration). Criteria for drug-induced effects: reversal of ptosis: palpebral opening score >1 at 15, 30 or 60 min (2.7, 0.5 and 0% false positive controls, respectively; n>350); induction of prostration: score −1 for locomotion at 15, 30 or 60 min (never observed in controls); reversal of hypomotility: score >0 for locomotion at 15, 30 and 60 min (2.2, 0.8 and 0% false positive controls, respectively); reversal of miosis: pupil diameter >5 units at 60 min (0.8% false positives); potentiation of hypothermia: temperature decrease (over the 1-h time interval)>9.0° C. (1.4% false positives); reversal of hypothermia: temperature decrease <3.0° C. (1.8% false positives).
According to the standard procedure, R0-4-1284 is injected 15 min following subcutaneous or oral administration and observations start 15 min later. Doses are initially given to 3 animals. When at least 2 out of the 3 animals show activity for at least one of the observations, the compound is considered active.

SMILES strings stand for the structures.

Turning to `OC1CCc2c(Nc3ccc(NCCc4c[nH]c5ccccc45)cc3)ccnc21` (stereo not shown) [drawing 34], the “A2780 p53-elisa LAD” value in the data set with p53 in A2780 cells worked out at 3.00E-07. For the same molecule, the “U87MG p53-elisa LAD” value in the data set with p53 in U87MG cells came out at 1.00E-07. For the same molecule, the “drug induced neurological side effects” value in the data set on Male NMRI mice is “yes”.
On the same counts, the results for `Cc1cccc2c(CCNc3ccc(Nc4ccncc4)cc3)c[nH]c12` are 3.00E-07, 1.00E-06 and “yes”.
On the same counts, the results for `OC1CCc2c(Nc3ccc(NCCc4c[nH]c5ccccc45)cc3)ccnc21` (stereo not shown) [drawing 33] are 1.00E-07, 1.00E-06 and “yes”.
On the same counts, the results for `Cc1cc(Nc2ccncc2)ccc1NCCc1c[nH]c2ccccc12` are 3.00E-06, 1.00E-05 and “yes”.
As to `Cc1cc(Nc2ccnc3c2CCC3O)ccc1NCCc1c[nH]c2c(C)cccc12` (stereo not shown) [compound 3], the “A2780 p53-elisa LAD” value with p53 in A2780 cells is 1.00E-07.
With `c1ccc2c(CCNc3ccc(Nc4ccncc4)cc3)c[nH]c2c1`, the “A2780 p53-elisa LAD” value in the data set on p53 in A2780 cells is on record as 1.00E-06. In addition, the “U87MG p53-elisa LAD” value in the data set with p53 in U87MG cells worked out at 3.00E-06. The “drug induced neurological side effects” value in the data set on Male NMRI mice is reported as “yes”.

Source of the values: US8853406B2, “Substituted phenylenediamines as inhibitors of the interaction between MDM2 and P53” (Janssen Pharmaceutica NV, priority 2007, dated 2014).
